Assay results reported in PubChem BioAssay (NCI).
Several values for one entry are separate records, joined by “and”; a condition that tells them apart may be missing. Equal values may be shown once.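 96-well plates; 48 h exposure; 5 concentrations. Endpoints by linear interpolation between flanking doses. Not reached: highest tested concentration assigned. At the GI50, growth is halved. TGI denotes the concentration required for complete inhibition of growth.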

Legend:
Test in all cases: growth of human tumour cells (NCI), 48 h
SR leukemia = system: SR leukemia
HT29 colon = system: HT29 colon
NCI-H522 lung = system: NCI-H522 lung
OVCAR-8 ovarian = system: OVCAR-8 ovarian
SW-620 colon = system: SW-620 colon
HCT-116 colon = system: HCT-116 colon
M14 melanoma = system: M14 melanoma
A498 renal = system: A498 renal
HCT-15 colon = system: HCT-15 colon
TK-10 renal = system: TK-10 renal

| Structure (SMILES) | TGI (SR leukemia) | TGI (HT29 colon) | TGI (NCI-H522 lung) | TGI (OVCAR-8 ovarian) | TGI (SW-620 colon) | TGI (HCT-116 colon) | TGI (M14 melanoma) | TGI (A498 renal) | TGI (HCT-15 colon) | TGI (TK-10 renal) | GI50 (SR leukemia) | GI50 (HT29 colon) | GI50 (NCI-H522 lung) | GI50 (OVCAR-8 ovarian) | GI50 (SW-620 colon) | GI50 (HCT-116 colon) | GI50 (M14 melanoma) | GI50 (A498 renal) | GI50 (HCT-15 colon) | GI50 (TK-10 renal) |
| --- | --- | --- | --- | --- | --- | --- | --- | --- | --- | --- | --- | --- | --- | --- | --- | --- | --- | --- | --- | --- |
| O=C(O)C1C(Br)(c2ccccc2)C1(Br)c1ccccc1 (stereo not drawn) | > 100 µM | 59 µM | 43.9 µM | 84.6 µM | > 100 µM | > 100 µM | > 100 µM | 83.8 µM | 47.5 µM | > 100 µM | – | – | – | – | – | – | – | – | – | – |
| Clc1ccc(C=Nc2ccc3c(c2)Cc2ccccc2-3)c(Cl)c1 | > 100 µM | > 100 µM | > 100 µM | > 100 µM | > 100 µM | > 100 µM | > 100 µM | > 100 µM | > 100 µM | > 100 µM | – | – | – | – | – | – | – | – | – | – |
| O=c1cccc(C#CC#CC2=CCCCC2)o1 | 23.4 µM | > 100 µM | 10.9 µM | 6.32 µM | 18.2 µM | 3.67 µM | 6.34 µM | 36.8 µM | 10.9 µM | 14.2 µM | 0.0307 µM | 14 µM | 4.03 µM | 2.21 µM | 3.4 µM | 1.16 µM | 2.13 µM | 19.8 µM | 2.76 µM | 8.69 µM |
| CCCCCCCCCCCC(=O)OCC1OC(OC)C(NC(=O)N(CCCl)N=O)C(O)C1O (stereo not drawn) | 18.6 µM | 31.2 µM | 24.7 µM | 41 µM | 24.5 µM | 29.2 µM | 24.5 µM | 35.7 µM | 96.1 µM | 61 µM | – | – | – | – | – | – | – | – | – | – |
| CC/C=C\C[C@H]1C/C=C2/C(=O)C=C[C@@H]2C/C=C\CCCC(=O)O1 | – | 1.27 µM | 2.45 µM | 10.7 µM | 5.52 µM | 0.511 µM | 3.7 µM | 3.35 µM | 2.86 µM | 5.03 µM | 0.288 µM | 0.376 µM | 0.57 µM | 0.338 µM | 0.454 µM | 0.218 µM | 0.599 µM | 1.82 µM | 0.423 µM | 1.8 µM |
| C[C@]12CC[C@@H]3c4cc(OCC(F)(F)F)c(O)cc4/C(=N/O)C[C@H]3[C@@H]1CC[C@@H]2O | – | 13.2 µM | 25.6 µM | 15.5 µM | > 48.1 µM | 15.2 µM | 16.9 µM | 21.5 µM | > 42.5 µM | > 100 µM | 0.00319 µM and 0.0157 µM | – | 0.0507 µM | 0.0808 µM | 0.0403 µM | 0.0421 µM | 0.0513 µM | – | 0.0487 µM | – |
| O=S(=O)(Nc1cc(Sc2cccc3cccnc23)c(O)c2ccccc12)c1ccccc1 | 17.2 µM | 14.4 µM | 8.17 µM | > 100 µM | 11.6 µM | 2.8 µM | 9.2 µM | 30.6 µM | 2.5 µM | 18.3 µM | 0.426 µM | 2.42 µM | 2.12 µM | 0.631 µM | 1.04 µM | 0.555 µM | 1.12 µM | 4.01 µM | 0.464 µM | 5.08 µM |
| COc1ccc2cc(C(C)C(=O)N3CCOC3=O)ccc2c1 (stereo not drawn) | > 100 µM | > 100 µM | > 100 µM | > 100 µM | > 100 µM | > 100 µM | > 100 µM | > 100 µM | > 100 µM | > 100 µM | – | – | – | – | – | – | – | – | – | – |
| CCCCON(OC(=O)c1ccc2ccc3cccc4ccc1c2c34)C(C)=O | 35.1 µM | 74.9 µM | 45.7 µM | > 100 µM | 39.1 µM | 52.3 µM | 55.3 µM | 85.8 µM | > 100 µM | 87.9 µM | 13.2 µM | 25 µM | 19.4 µM | 28.9 µM | 18.5 µM | 22.4 µM | 22.7 µM | 27.7 µM | 30.9 µM | 30.5 µM |
| Cc1ccc2[nH]c(O)c(N=Nc3ccc(S(N)(=O)=O)cc3)c2c1 | > 25 µM | > 25 µM | > 25 µM | > 25 µM | > 25 µM | > 25 µM | > 25 µM | > 25 µM | > 25 µM | > 25 µM | 7.23 µM | 12.1 µM | 8.94 µM | > 16.9 µM | 10.2 µM | 8.87 µM | > 25 µM | > 25 µM | 11.1 µM | 10.1 µM |
| C=C1C(=O)OC2/C=C(\COC(C)=O)CCC(OC(C)=O)C3=CC(OC3=O)C12 (stereo not drawn) | 16.1 µM | 15.8 µM | 1.14 µM | 9.6 µM | 4.47 µM | 6.85 µM | 10 µM | 34.1 µM | 7.76 µM | 15.4 µM | – | – | – | – | – | – | – | – | – | – |
| C=CC[C@]12C=C(OC)[C@@H](O)[C@](OC)(C(c3cc(OC)c4c(c3)OCO4)[C@H]1C)[C@H]2OC(C)=O (stereo partly drawn) | > 100 µM | > 100 µM | > 100 µM | > 100 µM | > 100 µM | > 100 µM | > 100 µM | > 100 µM | > 100 µM | > 100 µM | – | – | – | – | – | – | – | – | – | – |
| O=C1NC2OC(C(O)CO)C(O)C2O1 (stereo not drawn) | > 100 µM | > 100 µM | > 100 µM | > 100 µM | > 100 µM | > 100 µM | > 100 µM | > 100 µM | > 100 µM | > 100 µM | – | – | – | – | – | – | – | – | – | – |
| COc1cc(C(=O)c2cc(C)c3[nH]c4ccc(C)cc4c3c2C)cc(OC)c1OC | > 100 µM | 1.62 µM | – | > 100 µM | > 100 µM | – | > 100 µM | < 0.01 µM | > 100 µM | > 100 µM | < 0.01 µM | < 0.01 µM | < 0.01 µM | < 0.01 µM | < 0.01 µM | < 0.01 µM | < 0.01 µM | < 0.01 µM | < 0.01 µM | 3.37 µM |
| O=C(CCC1OCCO1)Nc1cc(NCc2ccccc2)ccc1OCc1ccccc1 | 92 µM | 96.6 µM | 78.6 µM | 58.6 µM | > 100 µM | > 100 µM | > 100 µM | > 100 µM | > 100 µM | 83.4 µM | – | – | – | – | – | – | – | – | – | – |
